Consider seven compounds from patent publication US20060019329A1, “Method of screening for protein inhibitors and activators” (priority 1988, published 2006).

In assay [1] the target is high affinity phorbol-ester binding sites (PKC). The following applies: read-out: affinity constant (Kd) of phorbol ester binding; control cell line R6-C1; intact cells; Scatchard; approximately the same in both cell lines.
Protocol: Cells were plated at 1×10^5 per 4 cm well on day 1, the medium was changed on day 2 and the cells then assayed on day 3. […] The plates were washed 3× with 4 ml ice-cold PBS. The cells were solubilized in 1 ml 1% SDS/10 mM DTT for 2 hrs at 37° C. The lysate was transferred to a scintillation vial and counted.
Assay [2] relates to R6-PKC5 cells (Rat 6 fibroblasts overproducing PKCbeta1). Briefly: Growth in soft agar (anchorage independence), R6-PKC5. It counts as cell-based. As to the method: (§1) Cells were seeded at a density of 10^4/plate in a series of 60 mm plates, in 5 ml DMEM plus 10% CS. Twenty-four hours later, cells in triplicate plates were trypsinized and counted. This point was designated “day 0.” The remaining cultures were then grown in the respective medium (i.e. plus or minus 100 ng/ml TPA) with fresh medium changes twice per week. Cell counts per plate were then determined on triplicate plates during the remainder of the growth curve (FIG. 3). The results obtained were analyzed for exponential doubling time and saturation density (Table 2). To assess growth in soft agar (anchorage independence), 2×10^4 cells were suspended in 2 ml of 0.3% Bacto agar (Difco Laboratories, Detroit, Mich.) in DMEM containing 20% fetal calf serum (FCS) and overlayed above a layer of 5 ml of 0.5% agar in the same medium, on 60 mm petri dishes. The cells were then overlaid with DMEM plus 20% FCS every 4 days. At the end of 30 days, colonies were stained with the vital stain 2-(p-iodophenyl)-3-(p-nitrophenyl)-5-phenyltetrazolinium chloride hydrate (INT) (Sigma Chemical Co., St. Louis, Mo.) for 48 hours at 37° C., in an incubator with 5% CO2 (Schaeffer and Friend, 1976), and the number of colonies counted under low power on an inverted phase microscope. The data are expressed as “cloning efficiency”, i.e. number of colonies greater than 0.05 mm per plate X 100 divided by the number of cells originally seeded per plate.
(§2) I also assayed these cell lines for their ability to form colonies in soft agar, since with rodent cells the acquisition of anchorage-independent growth often correlates with tumorigenicity (Freedman and Shin, 1974).

Assay [3] has as its system cell lines overproducing PKC. In words: Growth in agar of cell lines overproducing PKC (further screening of activators and inhibitors). It counts as cell-based, rat. The following applies: for modulation of the growth of the cells: PKC-overproducing cell lines, known activators or inhibitor of PKC. How it is done: as §1
Additional compounds tested included the tumor promoters teleocidin, aplysiatoxin, and mezerein, all of which are known activators of PKC (O'Brian, et al., CSH, 1985).
Inhibition of the growth of the R6-PKC3 cells in agar in the presence of tamoxifen provided critical evidence that tamoxifen could inhibit PKC-mediated stimulation of cellular growth.

The subject of assay [4] is R6-PKC3 cells (Rat 6 fibroblasts overproducing PKCbeta1). Briefly: Growth in soft agar (anchorage independence), R6-PKC3. Format: cell-based. As to the method:
as §1, §2

Assay [5] relates to R6-PKC3 cells. In words: Growth in monolayer culture, R6-PKC3. Format: cell-based, rat. As to the method:
as §1
It was also of interest to determine the growth rates of these cells in monolayer culture. Detailed growth curves were performed on R6-C1, R6-PKC3 and R6-PKC5 cells in 10% calf serum and DMEM medium, in the absence and presence of 100 ng/ml TPA.

The test system of assay [6] is R6-PKC5 cells. Briefly: Morphologic response to phorbol ester treatment, R6-PKC5. Format: cell-based, rat. As to the method:
(§3) FIG. 4. Morphologic Responses of the Cell Lines to Phorbol Ester Treatment. Nearly confluent cultures of the three indicated cell lines were exposed to 100 ng/ml TPA in 0.1% dimethylsulfoxide (DMSO) solvent (“+TPA”) or 0.1% DMSO alone (“−TPA”), in DMEM plus 10% CS. Photographs were taken 24 hours later (Panels A and D) and 48 hours later (Panels B and E). Fresh medium plus or minus TPA was then added and photographs were then taken an additional 24 hours later (Panels C and F). (Magnification: 100×).
(§4) All of the cell lines were then exposed to a second, fresh dose of TPA (100 ng/ml) and examined 24 hours later (FIG. 4, Panel F), i.e., 72 hours after the first dose of TPA.

The subject of assay [7] is FDC-P1 cells overproducing PKC beta1. Briefly: Morphologic response of FDC-P1 cells overproducing PKCbeta1 to PKC activators. Format: cell-based. The conditions noted are these: 100 nM TPA, after 12 hours. As to the method: Several cell lines were plated at 3×10E4 cells/ml and treated with 100 nM TPA. After 12 hours, representative fields were photographed. […] The latter clumps are easily visualized with standard cell stains such as Giemsa, and stain much darker than the corresponding control cells under these conditions.

In assay [8] the test system is R6-C1 control cells. In words: Morphologic response to phorbol ester treatment, control R6-C1. Format: cell-based, rat. As to the method:
as §3, §4

Assay [9] deals with R6-C1 control cells (Rat 6 fibroblasts with pMV7 alone). In words: Growth in soft agar (anchorage independence), control R6-C1. It counts as cell-based. How it is done:
(§5) Cells were seeded at a density of 10^4/plate in a series of 60 mm plates, in 5 ml DMEM plus 10% CS. Twenty-four hours later, cells in triplicate plates were trypsinized and counted. This point was designated “day 0.” The remaining cultures were then grown in the respective medium (i.e. plus or minus 100 ng/ml TPA) with fresh medium changes twice per week. Cell counts per plate were then determined on triplicate plates during the remainder of the growth curve (FIG. 3). The results obtained were analyzed for exponential doubling time and saturation density (Table 2). To assess growth in soft agar (anchorage independence), 2×10^4 cells were suspended in 2 ml of 0.3% Bacto agar (Difco Laboratories, Detroit, Mich.) in DMEM containing 20% fetal calf serum (FCS) and overlayed above a layer of 5 ml of 0.5% agar in the same medium, on 60 mm petri dishes. […] At the end of 30 days, colonies were stained with the vital stain 2-(p-iodophenyl)-3-(p-nitrophenyl)-5-phenyltetrazolinium chloride hydrate (INT) (Sigma Chemical Co., St. Louis, Mo.) for 48 hours at 37° C., in an incubator with 5% CO2 (Schaeffer and Friend, 1976), and the number of colonies counted under low power on an inverted phase microscope. The data are expressed as “cloning efficiency”, i.e. number of colonies greater than 0.05 mm per plate X 100 divided by the number of cells originally seeded per plate. […]

Assay [10] has as its system R6-C1 control cells. In words: Growth in monolayer culture, control R6-C1. Format: cell-based, rat. The conditions noted are these: R6C1 (control), + TPA 100 ng/ml. How it is done:
as §5

Assay [11] deals with R6-PKC5 cells. Briefly: Growth in monolayer culture, R6-PKC5. Format: cell-based, rat. The following applies: R6-PKC5 (test), + TPA 100 ng/ml. As to the method:
as §5

The subject of assay [12] is R6-PKC3 cells. In words: Morphologic response to phorbol ester treatment, R6-PKC3. It counts as cell-based, rat. As to the method:
as §3, §4

The subject of the next assay is PKC. The following applies: cell-free assay (O'Brian, et al, Cancer Res., 1985); cited from earlier work.
[13] abbreviates: 24 hours after second 100 ng/ml dose (72 hours after first).
Setting [14] is: R6-PKC5 (test), + TPA 100 ng/ml, 0.3% agar.
Where [15] appears, read: initial exponential phase, DMEM plus 10% CS.
[16] abbreviates: R6-PKC3 (test), + TPA 100 ng/ml, 0.3% agar.

pKd: −log10 of the molar value.

As a reminder, the pKd is −log10 of the Kd, conventionally taken in molar units. Consider `CCCC(=O)O[C@@H]1[C@@H](C)[C@@]2(O)[C@@H](C=C(CO)C[C@]3(O)C(=O)C(C)=C[C@@H]23)[C@@H]2C(C)(C)[C@]12OC(=O)CCC` [3H-PDBu], for which the pKd in assay [1] was 7.80.

For `CC1CNCCN1S(=O)(=O)c1cccc2cnccc12` (stereo not shown) [H-7, 1-(5-Isoquinolinesulfonyl)-2-methyl-piperazine], the “Effic. of Growth In Agar (%)” value in [2] (R6-PKC5, inhibitor 2 μM) is recorded as 21%; in [2] (R6-PKC5, inhibitor 5 μM) it was 16%; in assay [2] (R6-PKC5, inhibitor 10 μM), 4%; in assay [2] (R6-PKC5, inhibitor 50 μM), 1%; in assay [2] (R6-PKC5, inhibitor 100 μM), 0%; in [4] (R6-PKC3, inhibitor 2 μM), 25%. Moreover, the “Effic. of Growth In Agar (%)” value in assay [4] (R6-PKC3, inhibitor 5 μM) is 22%; in assay [4] (R6-PKC3, inhibitor 10 μM) it was 17%; in assay [4] (R6-PKC3, inhibitor 50 μM) it was 4%; in assay [4] (R6-PKC3, inhibitor 100 μM) it was 0%. In assay [3], the “modulation of the growth of the cells” value is on record as “modulated the growth of the cells in the expected manner”.

In the case of `CCCCCCCCCCCCCC(=O)O[C@@H]1[C@@H](C)[C@@]2(O)[C@@H](C=C(CO)C[C@]3(O)C(=O)C(C)=C[C@@H]23)[C@@H]2C(C)(C)[C@]12OC(C)=O` [TPA, 12-O-tetradecanoylphorbol-13-acetate], the “Monolayer Saturat. Density” value in the assay with R6-PKC3 cells [5] (R6-PKC3 (test), + TPA 100 ng/ml, cells per 6 cm plate on day 11) is listed as 10.0 × 10^6; in the assay on R6-C1 control cells [10] (cells per 6 cm plate on day 11), 4.2 × 10^6; with R6-PKC5 cells [11] (cells per 6 cm plate on day 11) it was 7.0 × 10^6. Moreover, the “Monolayer Doubling Time” value with R6-PKC3 cells [5] (R6-PKC3 (test), + TPA 100 ng/ml, initial exponential phase, DMEM plus 10% CS) was determined as 21.5 h; with R6-C1 control cells [10] (setting [15]) it was 24.6 h; in the assay with R6-PKC5 cells [11] (setting [15]), 22.9 h. Besides, the “cell density when maintained in TPA for a longer period” value in the assay with R6-PKC3 cells [5] (R6-PKC3, monolayer, longer period in presence of TPA, cells detach from plate) was “showed a decline in cell density”. In the assay with R6-PKC5 cells [6] (24 hours after 100 ng/ml TPA), the “morphologic changes after TPA compared with control” value is “much more dramatic”. For the same compound, the “morphologic response to second dose of TPA” value with R6-PKC5 cells [6] (setting [13]) is given as “only slight changes in morphology”; in the assay with R6-C1 control cells [8] (setting [13]), “failed to respond”; in the assay on R6-PKC3 cells [12] (setting [13]), “continued to display their altered morphology as well as an increase in cell density”. For the same compound, the “morphology after TPA” value in the assay on R6-PKC5 cells [6] (48 hours after 100 ng/ml TPA, to a lesser extent than R6-PKC3) was “continued to display an altered morphology”; with R6-C1 control cells [8] (24 hours after 100 ng/ml TPA) it was “more elongated and dendritic cells and a criss-cross pattern”; in the assay on R6-C1 control cells [8] (48 hours after 100 ng/ml TPA), “returned to its normal appearance”; in the assay with R6-PKC3 cells [12] (24 hours after 100 ng/ml TPA), “very long cytoplasmic processes and numerous refractile cell bodies”; in the assay on R6-PKC3 cells [12] (48 hours after 100 ng/ml TPA), “continued to display an altered morphology”. The “Agar Colony Size” value is 0.10-0.15 mm in assay [2] (setting [14]) and 0.15-0.35 mm in assay [4] (setting [16]). The “Agar Effic.” value in [2] (setting [14]) is 34.7%; in [9] (R6C1 (control), + TPA 100 ng/ml, 0.3% agar) it was 0%; in assay [4] (setting [16]) it was 29.7%. The “colony sizes and cloning efficiencies in agar” value in assay [2] (R6-PKC5, TPA 100 ng/ml in agar medium) is recorded as “enhanced”; in [4] (R6-PKC3, TPA 100 ng/ml in agar medium), “enhanced”. In addition, the morphologic changes result in [7] was “profound morphologic changes”. Also, the “growth in agar” value in [9] (R6-C1, TPA 100 ng/ml in agar medium) is reported as “still failed to grow in agar”.

On to `CC/C(=C(\c1ccccc1)c1ccc(OCCN(C)C)cc1)c1ccccc1` [Tamoxifen, tamoxifen], for which the “Effic. of Growth In Agar (%)” value in assay [2] (R6-PKC5, inhibitor 5 μM) was 19%; in assay [2] (R6-PKC5, inhibitor 20 μM), 17%; in [2] (R6-PKC5, inhibitor 50 μM), 8%; in [2] (R6-PKC5, inhibitor 100 μM), 0%; in assay [2] (R6-PKC5, inhibitor 200 μM), 0%; in [4] (R6-PKC3, inhibitor 5 μM) it was 27%. Moreover, the “Effic. of Growth In Agar (%)” value in assay [4] (R6-PKC3, inhibitor 20 μM) turned out to be 22%; in [4] (R6-PKC3, inhibitor 50 μM), 15%; in assay [4] (R6-PKC3, inhibitor 100 μM), 6%; in assay [4] (R6-PKC3, inhibitor 200 μM), 0%. Further, in assay [3] (all of the cell lines overproducing PKC), the “inhibition of growth in agar” value was “completely inhibiting the growth in agar”. For the same compound, in the assay on PKC, the “effect on PKC enzyme activity” value was “inhibits PKC enzyme activity”.

Take `CO[C@@H](CC[C@H](C)[C@H]1O[C@@]23C[C@H](OC(=O)C[C@H]([C@@H](C)O)OC(=O)C[C@](O)(O2)[C@H](C)CC3(C)C)[C@@H]1C)c1cc(O)ccc1Br` [aplysiatoxin]: the “modulation of the growth of the cells” value in assay [3] is “modulated the growth of the cells in the expected manner”.

Regarding `C=C(C)[C@@]12O[C@@]3(c4ccccc4)O[C@@H]1[C@@H]1[C@@H]4O[C@]4(CO)[C@@H](O)[C@]4(O)C(=O)C(C)=C[C@H]4[C@@]1(O3)[C@H](C)[C@H]2OC(=O)/C=C/C=C/c1ccccc1` [mezerein], the “modulation of the growth of the cells” value in assay [3] was “modulated the growth of the cells in the expected manner”.

In the case of teleocidin, the “modulation of the growth of the cells” value in [3] is “modulated the growth of the cells in the expected manner”.
